These results are taken from patent US20220339135A1, “COMPOSITIONS AND METHODS FOR MODULATING AN INFLAMMATORY RESPONSE” (Enzychem Lifesciences Corporation, priority 2019, published 2022).

Entries after “also recorded” stand apart in the source; their conditions may differ.

The subject of assay [1] is Pseudomonas aeruginosa (PAK) in BALF. Description: PAK infection of mice, CFU determination in BALF. Format: in vivo. The settings on record: PAK-induced pneumonia mice, BALF 2 hours after infection. Here is the method: Pseudomonas aeruginosa (PAK) was grown overnight in LB broth at 37° C. with agitation, and then harvested by centrifugation at 13,000×g for 2 min. The pellet was diluted to yield 1×10^5 colony-forming unit (CFU) per 20 μL of phosphate-buffered saline (PBS) as determined by the optical density at 600 nm. The diluted bacteria were administered to BALB/c mice by intranasal injections. Bronchoalveolar lavage fluid (BALF) samples were then collected 2 hours after infection and serially diluted 1:1,000-1:10,000 with PBS and incubated overnight at 37° C. on LB agar plates. The number of viable bacteria in BALF samples were determined by counting the numbers of colonies formed on the plates.

The subject of assay [2] is Pseudomonas aeruginosa strain K (PAK) in bone marrow-derived macrophages (BMDMs). The assay can be described thus: In vitro phagocytosis and bacterial killing assay, BMDMs. Format: cell-based. The settings on record: for phagocytic activity of BMDMs (intracellular PAK CFU, confocal): 100 μg/ml pretreated 1 h, PAK MOI 50 for 1 h. Here is the method:
For immunofluorescence-based measurement of phagocytosis and clearance, BMDMs were grown on glass coverslips in 24-well plates. The cells were infected with PAK (MOI, 50) for different time intervals and then were treated with 10 μg/ml gentamycin for 30 minutes to remove extracellular PAK attached to the cell surface. The infected cells were washed with ice-cold PBS several times, followed by fixing for 10 minutes at room temperature in methanol or 10% paraformaldehyde. The cells were stained with anti-Pseudomonas antibody (Abcam) and then were incubated with goat anti-rabbit IgG secondary antibody conjugated with Alexa Fluor 488. Slides were mounted using the mounting medium ProLong™ Gold antifade reagent with the DNA-binding blue dye DAPI (Thermo Scientific™) and were imaged with a confocal microscope (Zeiss LSM 800, Germany).
(§1) For CFU counting-based phagocytosis and bacterial killing assay, PAK was cultured at 37° C. overnight with continuous shaking and was resuspended in PBS. The BMDMs or THP-1 cells were incubated with PAK (MOI, 50) for different time intervals at 37° C. The cells were further cultured in the medium containing 10 μg/ml gentamycin for 30 minutes and then were lysed by 0.5% SDS. The diluted aliquots were spread on LB agar plates, and CFU was counted after incubation of the plates overnight at 37° C.
To evaluate whether PLAG accelerates phagocytosis of PAK by macrophages in vitro systems, bone marrow-derived macrophages (BMDMs) were pretreated with PLAG, and then infected with PAK (MOI, 50) for different lengths of time. Gentamycin ([…]) was treated to the cells for 30 minutes to remove extracellular bacteria. Immunofluorescence micrographs of BMDMs incubated with PAK confirmed that PLAG accelerated not only engulfment of bacteria, but also clearance of bacteria (FIG. 5A). […] PAK is recognized by toll-like receptors 4 and 5 and PAK is phagocytosed by co-cultured macrophage at 2 hrs and sustained for 4 hrs. In the PLAG treated cells, phagocytosis of PAK starts at 30 min and maximized at 1 hr and the invading PAK is cleared at 2 hrs.
For the CFU counting-based phagocytosis assay, PAK was cultured at 37° C. overnight with continuous shaking and then resuspended in PBS. BMDMs were pretreated with 100 μg/ml of PLAG or PLH for 1 hour. The cells were infected with PAK (multiplicity of infection [MOI], 50) for 1 h, and then treated with 10 μg/ml gentamycin for 30 minutes to remove extracellular PAK attached to the cell surface. Then, the cells were lysed with 0.5% SDS and serially diluted in PBS to spread on LB agar plates. CFU counts were performed after overnight incubation at 37° C.
For the immunofluorescence-based measurement of phagocytosis and clearance, BMDMs were grown on glass coverslips in 24-well plates. The cells were infected with PAK (MOI, 50) for 1 hour and then treated with 10 μg/ml gentamycin for 30 minutes to remove extracellular PAK attached to the cell surface. The infected cells were washed several times with ice-cold PBS and then fixed for 10 minutes at room temperature in methanol or 10% paraformaldehyde. The cells were then incubated with anti-Pseudomonas primary and Alexa Fluor 488-conjugated goat anti-rabbit IgG secondary antibodies. The coverslips were mounted on slides with ProLong Gold antifade reagent with DAPI (Thermo Fisher Scientific) and imaged with a confocal microscope (LSM 800; Zeiss, Germany). […]

Assay [3] relates to PAK in THP-1 cells. The assay can be described thus: In vitro phagocytosis of PAK, THP-1 cells. The note with it: 1 hour after infection. Format: cell-based, human. Here is the method: as §1
In assay [4] the test system is LPS-induced acute lung injury. The assay can be described thus: LPS-induced acute lung injury (ALI) in mice. Format: in vivo. The settings on record: for number of neutrophils in BALF: LPS-treated mice, co-treatment.
Setting [5] is: PAK MOI 50, PLAG pretreated BMDMs.

As for `CCCCC/C=C\C/C=C\CCCCCCCC(=O)OC(COC(C)=O)COC(=O)CCCCCCCCCCCCCCC` (racemic) [PLAG, 1-palmitoyl-2-linoleoyl-3-acetylglycerol], the “bacterial clearance of PAK in BALF” value in assay [1] is given as “showed the bacterial clearance activity; also recorded: effectively eliminated”. Moreover, in assay [2], the “phagocytic activity of BMDMs (intracellular PAK CFU, confocal)” value is “most advanced phagocytosis; also recorded: most effectively enhanced”. Moreover, in assay [2] (setting [5]), the “invading PAK is cleared” value amounted to 2 h, the “phagocytosis of PAK maximized” value is 1 h and the “phagocytosis of PAK starts” value is reported as 30 min. Moreover, the “phagocytosis of PAK by THP-1 cells” value in assay [3] is on record as “advanced phagocytosis”. Moreover, the “inflammatory cell infiltration into the alveolar space (H&E)” value in assay [4] (16 hours after LPS, PLAG 250 mg/kg oral) is on record as “considerably reduced”. Also, the “mRNA expression of MIP-2, S100A8, S100A9 increased by LPS” value in assay [4] (BALF cells, 16 hours) is “significantly attenuated”. In addition, the “Evans blue-stained albumin in lungs” value in assay [4] (LPS 25 mg/kg intranasal, PLAG 250 mg/kg oral) is “significantly decreased”. Also, the “number of neutrophils in BALF” value in assay [4] is listed as “more rapidly return to homeostasis; also recorded: dramatically reduced”. The “MPO activity of isolated lung tissue” value in assay [4] (vs LPS alone, PLAG 250 mg/kg oral) is reported as “significantly decreased”. Moreover, in assay [4] (without LPS), the “neutrophil migration, PLAG treatment alone” value was “no effect”.
Turning to `CCCCC/C=C\C/C=C\CCCCCCCC(=O)OC(CO)COC(=O)CCCCCCCCCCCCCCC` (stereo not shown) [PLH, palmitic linoleic hydroxyl glycerol, reference compound], the “bacterial clearance of PAK in BALF” value in assay [1] is reported as “didn't; also recorded: did not”. In addition, in assay [2], the “phagocytic activity of BMDMs (intracellular PAK CFU, confocal)” value is listed as “little effect”. In addition, the “phagocytosis of PAK by THP-1 cells” value in assay [3] was “little effect”. Also, the “number of neutrophils in BALF” value in assay [4] is recorded as “no effect”.
